Key:
hsHDAC6 = target: T1, hsHDAC6 (Homo sapiens, UniProt Q9UBN7); assay: hsHDAC6 in vitro inhibition assay; format: biochemical; settings: for IC50: mean ± S.E., ZMAL 10.5 µM, 90 min at 37 °C
T1 construct: purchased BPS Bioscience
T1 sequence (Q9UBN7 1-1215): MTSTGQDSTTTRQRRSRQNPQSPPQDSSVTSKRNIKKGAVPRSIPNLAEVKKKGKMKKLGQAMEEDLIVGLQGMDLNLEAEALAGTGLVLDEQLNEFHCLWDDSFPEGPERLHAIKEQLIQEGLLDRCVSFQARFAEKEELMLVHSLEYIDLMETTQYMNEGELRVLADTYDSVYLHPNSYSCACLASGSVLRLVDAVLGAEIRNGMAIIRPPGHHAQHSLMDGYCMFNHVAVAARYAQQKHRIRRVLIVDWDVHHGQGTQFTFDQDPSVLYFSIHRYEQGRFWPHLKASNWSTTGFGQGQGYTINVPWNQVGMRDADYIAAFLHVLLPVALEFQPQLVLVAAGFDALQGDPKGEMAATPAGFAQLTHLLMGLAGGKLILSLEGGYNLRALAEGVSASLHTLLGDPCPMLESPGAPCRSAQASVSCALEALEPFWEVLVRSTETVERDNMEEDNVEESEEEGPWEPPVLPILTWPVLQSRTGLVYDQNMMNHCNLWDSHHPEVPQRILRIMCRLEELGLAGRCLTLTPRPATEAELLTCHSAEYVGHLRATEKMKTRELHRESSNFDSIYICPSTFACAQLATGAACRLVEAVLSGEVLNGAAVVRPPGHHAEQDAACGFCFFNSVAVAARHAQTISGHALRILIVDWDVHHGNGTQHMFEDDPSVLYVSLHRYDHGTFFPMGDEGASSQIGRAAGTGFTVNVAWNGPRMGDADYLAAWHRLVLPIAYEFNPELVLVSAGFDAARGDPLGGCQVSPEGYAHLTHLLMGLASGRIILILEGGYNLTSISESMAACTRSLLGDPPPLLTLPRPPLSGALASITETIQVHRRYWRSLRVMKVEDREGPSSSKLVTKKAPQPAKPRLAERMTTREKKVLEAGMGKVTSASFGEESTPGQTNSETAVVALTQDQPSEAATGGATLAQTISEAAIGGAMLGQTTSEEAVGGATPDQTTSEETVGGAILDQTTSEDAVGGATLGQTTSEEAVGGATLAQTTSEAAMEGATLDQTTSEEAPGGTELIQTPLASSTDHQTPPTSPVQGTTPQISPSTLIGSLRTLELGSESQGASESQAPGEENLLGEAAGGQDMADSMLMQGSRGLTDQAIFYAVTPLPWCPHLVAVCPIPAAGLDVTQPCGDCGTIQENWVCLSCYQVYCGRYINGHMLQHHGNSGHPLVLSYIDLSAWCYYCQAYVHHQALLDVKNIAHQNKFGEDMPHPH
Experimental: (§1) The biological assay was carried out using purified smHDAC8 protein and the small molecule substrate Z(Tfa)Lys-AMC (ZMTFAL) as previously reported. To assess the selectivity, the selected compounds were further tested against the human orthologue hsHDAC8 as well as the major human HDAC isoforms (HDAC1 and -6) using an established in vitro assay. […] Recombinant human HDAC1 and HDAC6 were purchased from BPS Bioscience. Recombinant human HDAC8 was expressed and purified as previously described. Recombinant smHDAC8 enzyme was produced in E. coli cells and purified by a method previously described by us. Inhibition assays of smHDAC8 and human HDACs were performed as already described in previous publications. Briefly, the commercial Fluor de Lys kit (BML-KI178) was used for testing inhibition of smHDAC8 and hsHDAC8. Test compounds, Fluor de Lys-HDAC8 substrate (50 µM) and enzyme were incubated for 90 min at 37 °C with subsequent addition of 50 μL Developer II (BML-KI176) and further incubation for 45 min at 30 °C. Fluorescence was measured in a plate reader (BMG Polarstar) with excitation at λ = 390 nm and emission at λ = 460 nm. Inhibition tests of human HDAC1 and 6 were conducted using ZMAL (Cbz-(Ac)Lys-AMC) as substrate and trypsin as a developer. […] Trichostatin A (2 µM) was used in both assays to stop the reaction. Fluorescence was measured similarly as mentioned above. IC50 values were determined with OriginPro (version 9.0.0, Northampton, MA, USA). IC50 Values in Table 1 are given as mean ± S.E.

smHDAC8 = target: T2, smHDAC8 (Schistosoma mansoni, UniProt A5H660); assay: smHDAC8 in vitro inhibition assay; format: biochemical; settings: for IC50: mean ± S.E., Fluor de Lys-HDAC8 substrate 50 µM, 90 min at 37 °C
T2 construct: made in house; host or cells: E. coli
T2 sequence (A5H660 1-440): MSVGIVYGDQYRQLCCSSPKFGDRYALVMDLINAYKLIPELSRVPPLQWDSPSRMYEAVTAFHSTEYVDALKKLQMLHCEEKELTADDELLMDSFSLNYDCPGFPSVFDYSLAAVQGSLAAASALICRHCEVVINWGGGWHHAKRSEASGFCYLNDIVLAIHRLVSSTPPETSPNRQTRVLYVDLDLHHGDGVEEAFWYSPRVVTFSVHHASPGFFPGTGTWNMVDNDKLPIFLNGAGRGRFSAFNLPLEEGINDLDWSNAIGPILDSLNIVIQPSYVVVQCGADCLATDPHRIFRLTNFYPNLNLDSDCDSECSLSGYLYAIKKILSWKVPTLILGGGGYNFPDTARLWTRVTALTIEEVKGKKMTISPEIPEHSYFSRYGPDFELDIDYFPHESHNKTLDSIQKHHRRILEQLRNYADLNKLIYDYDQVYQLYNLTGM
Experimental: The biological assay was carried out using purified smHDAC8 protein and the small molecule substrate Z(Tfa)Lys-AMC (ZMTFAL) as previously reported. To assess the selectivity, the selected compounds were further tested against the human orthologue hsHDAC8 as well as the major human HDAC isoforms (HDAC1 and -6) using an established in vitro assay.
Recombinant human HDAC1 and HDAC6 were purchased from BPS Bioscience. Recombinant human HDAC8 was expressed and purified as previously described. Recombinant smHDAC8 enzyme was produced in E. coli cells and purified by a method previously described by us. Inhibition assays of smHDAC8 and human HDACs were performed as already described in previous publications. Briefly, the commercial Fluor de Lys kit (BML-KI178) was used for testing inhibition of smHDAC8 and hsHDAC8. Test compounds, Fluor de Lys-HDAC8 substrate (50 µM) and enzyme were incubated for 90 min at 37 °C with subsequent addition of 50 μL Developer II (BML-KI176) and further incubation for 45 min at 30 °C. Fluorescence was measured in a plate reader (BMG Polarstar) with excitation at λ = 390 nm and emission at λ = 460 nm. Inhibition tests of human HDAC1 and 6 were conducted using ZMAL (Cbz-(Ac)Lys-AMC) as substrate and trypsin as a developer. […] Trichostatin A (2 µM) was used in both assays to stop the reaction. Fluorescence was measured similarly as mentioned above. IC50 values were determined with OriginPro (version 9.0.0, Northampton, MA, USA). IC50 Values in Table 1 are given as mean ± S.E.

hsHDAC1 = target: T3, hsHDAC1 (Homo sapiens, UniProt Q13547); assay: hsHDAC1 in vitro inhibition assay; format: biochemical; settings: mean ± S.E.; ZMAL 10.5 µM, 90 min at 37 °C
T3 construct: purchased BPS Bioscience
Experimental: as §1

hsHDAC8 = target: T4, hsHDAC8 (Homo sapiens, UniProt Q9BY41); assay: hsHDAC8 in vitro inhibition assay; format: biochemical; settings: mean ± S.E.; Fluor de Lys-HDAC8 substrate 50 µM, 90 min at 37 °C
T4 construct: made in house
T4 sequence (Q9BY41 1-377): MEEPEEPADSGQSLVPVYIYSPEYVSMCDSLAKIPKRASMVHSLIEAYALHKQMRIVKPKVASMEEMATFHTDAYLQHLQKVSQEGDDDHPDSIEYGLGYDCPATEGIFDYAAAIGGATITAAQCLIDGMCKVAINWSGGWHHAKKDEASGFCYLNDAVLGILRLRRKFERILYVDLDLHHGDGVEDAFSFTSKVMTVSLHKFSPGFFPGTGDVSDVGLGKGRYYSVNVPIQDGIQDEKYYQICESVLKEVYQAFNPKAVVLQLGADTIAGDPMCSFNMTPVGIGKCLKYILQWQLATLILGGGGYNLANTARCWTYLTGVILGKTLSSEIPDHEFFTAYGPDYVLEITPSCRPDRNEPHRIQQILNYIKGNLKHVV
Experimental: as §1

S. mansoni schistosomula [1] = assay: Apoptosis induction in schistosomula (TUNEL); format: cell-based, Schistosoma mansoni; settings: 100 µM, after 3 days
Experimental: The compound J1036 induced dose-dependent apoptosis in the infective larval stage (schistosomula) of S. mansoni, affecting 67% of the larvae after 3 days at a dose of 100 µM (Figure 4), whereas a polar hydroxamate derivative (J1038) identified by a previous virtual screening was ineffective in the same assay (data not shown here). […]. Although we cannot directly correlate the inhibitory activity on smHDAC8 with the lethal effect of J1036 on schistosomula, the high level of expression of this class I HDAC [21] in the parasite, and its validation as a stand-alone target by transcript knockdown, mean that its inhibition is sufficient to induce the effects observed.
Figure 4 J1036 induces apoptosis in S. mansoni schistosomula in vitro. (A) Dose-dependent induction of apoptosis determined by dUTP nick end labeling (TUNEL) shown as the percentage of parasites positively labeled; (B) TUNEL staining of schistosomula treated with 100 µM J1036 for 3 days. Parasites were counterstained using 4′,6-Diamidino-2-Phenylindole (DAPI).
The capacity of compounds J1036 and J1038 to induce apoptosis in S. mansoni schistosomula was measured using dUTP nick end labelling (TUNEL) and the In Situ Cell Death Detection Kit TMR (Roche Applied Science, Penzberg, Germany) exactly as previously described.

S. mansoni schistosomula [2] = test system: S. mansoni schistosomula; design: method as in PMID 24086136; settings: at 100 µM; cited from earlier work

T3 sequence (Q13547 whole entry): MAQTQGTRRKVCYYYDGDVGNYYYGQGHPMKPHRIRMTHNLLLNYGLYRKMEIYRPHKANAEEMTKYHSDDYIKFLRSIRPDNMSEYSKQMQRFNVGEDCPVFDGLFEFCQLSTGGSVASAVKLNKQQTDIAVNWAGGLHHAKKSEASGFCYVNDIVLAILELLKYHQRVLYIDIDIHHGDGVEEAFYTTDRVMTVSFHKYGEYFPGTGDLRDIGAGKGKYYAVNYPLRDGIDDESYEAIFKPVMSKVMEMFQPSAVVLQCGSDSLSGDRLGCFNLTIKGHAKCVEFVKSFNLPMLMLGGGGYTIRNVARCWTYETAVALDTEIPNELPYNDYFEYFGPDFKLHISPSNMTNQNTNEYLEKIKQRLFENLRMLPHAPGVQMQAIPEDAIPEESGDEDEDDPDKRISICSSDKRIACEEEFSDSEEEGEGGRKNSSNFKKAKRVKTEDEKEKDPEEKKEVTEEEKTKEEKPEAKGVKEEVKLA

Structure (SMILES)	IC50 (hsHDAC6)	IC50 (smHDAC8)	IC50 (hsHDAC1)	IC50 (hsHDAC8)	apoptosis, percentage of larvae affected (TUNEL positive) (S. mansoni schistosomula [1])	inhibitory activity against HDAC6 (in words) (hsHDAC6)	inhibition at 25 µM (smHDAC8; at 25 µM)	apoptosis, percentage of larvae affected (S. mansoni schistosomula [2])
CCCCCC(=O)N(O)C1CC(=O)N(c2ccc(Cl)cc2)C1=O (stereo not shown) [J1036]	5020 ± 310 nM	4.4 ± 0.17 µM	6.76 ± 0.97 µM	490 ± 180 nM	67%			
CCCCC(=O)N(O)C1CC(=O)N(c2ccccc2)C1=O (stereo not shown) [J1057]	6200 ± 340 nM	13.2 ± 1.85 µM	42.1 ± 2.2 µM	2620 ± 190 nM				
CCCCCC(=O)N(O)C1CC(=O)N(c2ccccc2)C1=O (stereo not shown) [J1058]	6200 ± 410 nM	20.3 ± 2.78 µM	26 ± 2.4 µM	3990 ± 740 nM				
CCCCCCC(=O)N(O)C1CC(=O)N(c2ccccc2)C1=O (stereo not shown) [J1060]	860 ± 120 nM	11.5 ± 0.91 µM	5 ± 0.42 µM	1800 ± 240 nM		submicromolar		
CCCCCCC(=O)N(O)C1CC(=O)N(c2ccc(Cl)cc2)C1=O (stereo not shown) [J1061]	2650 ± 290 nM	5.5 ± 0.7 µM	3.98 ± 0.45 µM	7690 ± 3300 nM				
CCCCCCC(=O)N(O)C1CC(=O)N(c2ccc(Br)cc2)C1=O (stereo not shown) [J1063]	770 ± 90 nM	5.9 ± 1.6 µM	1.42 ± 0.13 µM	7720 ± 4420 nM		submicromolar		
CCCCCCC(=O)N(O)C1CC(=O)N(c2ccc(F)cc2)C1=O (stereo not shown) [J1064]	600 ± 120 nM	7.79 ± 0.28 µM	4.3 ± 0.46 µM	2080 ± 340 nM		submicromolar		
CCCCCCC(=O)N(O)C1CC(=O)N(c2ccc(C)cc2)C1=O (stereo not shown) [J1065]	1570 ± 370 nM	20.2 ± 2.7 µM	8.4 ± 0.28 µM	3960 ± 600 nM				
CCCCCCC(=O)N(O)C1CC(=O)N(c2cccc(Cl)c2C)C1=O (stereo not shown) [J1066]							13%	
O=C(NO)c1sc2ccccc2c1Cl [J1075]								54%
O=C(CCCCCCC(=O)Nc1ccccc1)NO [SAHA]								43%
COc1ccc(C(=O)NO)cc1NC(=O)c1ccc(-c2ccccc2)cc1 [TH65, reference compound]	390 ± 2 nM	0.075 ± 0.025 µM	6.3 ± 2.1 µM	26 ± 17 nM				

Reference: paper PMC6017931, “A Novel Class of Schistosoma mansoni Histone Deacetylase 8 (HDAC8) Inhibitors Identified by Structure-Based Virtual Screening and In Vitro Testing” (Molecules : A Journal of Synthetic Chemistry and Natural …, 2018)
